Laboratory results reported in PubChem BioAssay (NCI).
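Where inhibition never reached the appropriate level, the endpoint shown equals the highest concentration tested. Otherwise, values were interpolated linearly from a five-concentration, 48-hour dose response in 96-well plates. GI50 is the concentration that inhibits growth by half. TGI: total growth inhibition.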

Assays:
Assay in all cases: NCI anticancer screen, dose series, 48 h
A549 NSCLC = test system: A549 NSCLC
NCI-H522 lung = test system: NCI-H522 lung
UACC-62 melanoma = test system: UACC-62 melanoma
EKVX NSCLC = test system: EKVX NSCLC
NCI/ADR-RES ovarian = test system: NCI/ADR-RES ovarian
HOP-92 NSCLC = test system: HOP-92 NSCLC
NCI-H226 lung = test system: NCI-H226 lung
SNB-19 CNS = test system: SNB-19 CNS
SW-620 colon = test system: SW-620 colon
HOP-62 NSCLC = test system: HOP-62 NSCLC
SK-OV-3 ovarian = test system: SK-OV-3 ovarian
SN12C renal = test system: SN12C renal
IGROV1 ovarian = test system: IGROV1 ovarian
KM12 colon = test system: KM12 colon
A498 renal = test system: A498 renal
DU-145 prostate = test system: DU-145 prostate
HCC-2998 colon = test system: HCC-2998 colon
PC-3 prostate = test system: PC-3 prostate
COLO 205 colon = test system: COLO 205 colon
U251 CNS = test system: U251 CNS
M14 melanoma = test system: M14 melanoma
OVCAR-8 ovarian = test system: OVCAR-8 ovarian
SNB-75 CNS = test system: SNB-75 CNS
HCT-15 colon = test system: HCT-15 colon
HS 578T breast = test system: HS 578T breast
BT-549 breast = test system: BT-549 breast
SF-295 CNS = test system: SF-295 CNS
RXF 393 renal = test system: RXF 393 renal
MDA-MB-435 = test system: MDA-MB-435
SF-268 CNS = test system: SF-268 CNS
UACC-257 melanoma = test system: UACC-257 melanoma
RPMI-8226 leukemia = test system: RPMI-8226 leukemia
NCI-H460 lung = test system: NCI-H460 lung
HT29 colon = test system: HT29 colon
OVCAR-3 ovarian = test system: OVCAR-3 ovarian
LOX IMVI melanoma = test system: LOX IMVI melanoma
OVCAR-4 ovarian = test system: OVCAR-4 ovarian
ACHN renal = test system: ACHN renal
OVCAR-5 ovarian = test system: OVCAR-5 ovarian
CAKI-1 renal = test system: CAKI-1 renal
CCRF-CEM leukemia = test system: CCRF-CEM leukemia
SK-MEL-2 melanoma = test system: SK-MEL-2 melanoma
MCF7 breast = test system: MCF7 breast
MALME-3M melanoma = test system: MALME-3M melanoma
HCT-116 colon = test system: HCT-116 colon
TK-10 renal = test system: TK-10 renal
SF-539 CNS = test system: SF-539 CNS
SK-MEL-28 melanoma = test system: SK-MEL-28 melanoma
MDA-MB-231 breast = test system: MDA-MB-231 breast
T-47D breast = test system: T-47D breast
786-0 renal = test system: 786-0 renal
UO-31 renal = test system: UO-31 renal
SK-MEL-5 melanoma = test system: SK-MEL-5 melanoma

COc1cc2nc(-c3ccc(C(F)(F)F)cc3)cc(OCCCNCC3CCCO3)c2cc1OC (stereo unspecified)
GI50 (A549 NSCLC): 4.43 µM
TGI (A549 NSCLC): 21.2 µM
GI50 (NCI-H522 lung): 3.05 µM
TGI (NCI-H522 lung): 13.8 µM
GI50 (UACC-62 melanoma): 3.54 µM
TGI (UACC-62 melanoma): 14.5 µM
GI50 (EKVX NSCLC): 4.22 µM
TGI (EKVX NSCLC): 18.6 µM
GI50 (NCI/ADR-RES ovarian): 6.92 µM
TGI (NCI/ADR-RES ovarian): 24.5 µM
GI50 (HOP-92 NSCLC): 1.57 µM
TGI (HOP-92 NSCLC): 7.85 µM
GI50 (NCI-H226 lung): 2.51 µM
TGI (NCI-H226 lung): 8.6 µM
GI50 (SNB-19 CNS): 13.3 µM
TGI (SNB-19 CNS): 28.4 µM
GI50 (SW-620 colon): 8.16 µM
TGI (SW-620 colon): 22 µM
GI50 (HOP-62 NSCLC): 6.01 µM
TGI (HOP-62 NSCLC): 21.4 µM
GI50 (SK-OV-3 ovarian): 12.4 µM
TGI (SK-OV-3 ovarian): 25.8 µM
GI50 (SN12C renal): 4.63 µM
TGI (SN12C renal): 18.4 µM
GI50 (IGROV1 ovarian): 4.41 µM
TGI (IGROV1 ovarian): 18.8 µM
GI50 (KM12 colon): 5.49 µM
TGI (KM12 colon): 20.5 µM
GI50 (A498 renal): 20.6 µM
TGI (A498 renal): 37 µM
GI50 (DU-145 prostate): 9.03 µM
TGI (DU-145 prostate): 21.7 µM
GI50 (HCC-2998 colon): 10.3 µM
TGI (HCC-2998 colon): 23.6 µM
GI50 (PC-3 prostate): 3.8 µM
TGI (PC-3 prostate): 17.2 µM
GI50 (COLO 205 colon): 3.09 µM
TGI (COLO 205 colon): 17.7 µM
GI50 (U251 CNS): 7.37 µM
TGI (U251 CNS): 26.5 µM
GI50 (M14 melanoma): 3.09 µM
TGI (M14 melanoma): 12.4 µM
GI50 (OVCAR-8 ovarian): 3.72 µM
TGI (OVCAR-8 ovarian): 16.6 µM
GI50 (SNB-75 CNS): 8.45 µM
TGI (SNB-75 CNS): 21.9 µM
GI50 (HCT-15 colon): 3.1 µM
TGI (HCT-15 colon): 12.3 µM
GI50 (HS 578T breast): 10.4 µM
TGI (HS 578T breast): 25.8 µM
GI50 (BT-549 breast): 6.92 µM
TGI (BT-549 breast): 21.1 µM
GI50 (SF-295 CNS): 8.68 µM
TGI (SF-295 CNS): 22 µM
GI50 (RXF 393 renal): 1.38 µM
TGI (RXF 393 renal): 5.23 µM
GI50 (MDA-MB-435): 3.13 µM
TGI (MDA-MB-435): 11.7 µM
GI50 (SF-268 CNS): 10.4 µM
TGI (SF-268 CNS): 25 µM
GI50 (UACC-257 melanoma): 2.01 µM
TGI (UACC-257 melanoma): 4.79 µM
GI50 (RPMI-8226 leukemia): 2.39 µM
TGI (RPMI-8226 leukemia): 12.2 µM
GI50 (NCI-H460 lung): 3.89 µM
TGI (NCI-H460 lung): 15.8 µM
GI50 (HT29 colon): 2.98 µM
TGI (HT29 colon): 11.2 µM
GI50 (OVCAR-3 ovarian): 12.3 µM
TGI (OVCAR-3 ovarian): 27.5 µM
GI50 (LOX IMVI melanoma): 1.61 µM
TGI (LOX IMVI melanoma): 4.33 µM
GI50 (OVCAR-4 ovarian): 9.01 µM
TGI (OVCAR-4 ovarian): 21.5 µM
GI50 (ACHN renal): 4.89 µM
TGI (ACHN renal): 18.2 µM
GI50 (OVCAR-5 ovarian): 4.09 µM
TGI (OVCAR-5 ovarian): 17.5 µM
GI50 (CAKI-1 renal): 1.74 µM
TGI (CAKI-1 renal): 5.32 µM
GI50 (CCRF-CEM leukemia): 6.61 µM
TGI (CCRF-CEM leukemia): 24.4 µM
GI50 (SK-MEL-2 melanoma): 13.7 µM
TGI (SK-MEL-2 melanoma): 26.9 µM
GI50 (MCF7 breast): 3.23 µM
TGI (MCF7 breast): 15.9 µM
GI50 (MALME-3M melanoma): 3.17 µM
TGI (MALME-3M melanoma): 13.8 µM
GI50 (HCT-116 colon): 3.45 µM
TGI (HCT-116 colon): 14.8 µM
GI50 (TK-10 renal): 12.2 µM
TGI (TK-10 renal): 25.3 µM
GI50 (SF-539 CNS): 11.2 µM
TGI (SF-539 CNS): 24 µM
GI50 (SK-MEL-28 melanoma): 5.77 µM
TGI (SK-MEL-28 melanoma): 19.3 µM
GI50 (MDA-MB-231 breast): 3.79 µM
TGI (MDA-MB-231 breast): 17 µM
GI50 (T-47D breast): 4.06 µM
TGI (T-47D breast): 19 µM
GI50 (786-0 renal): 6.44 µM
TGI (786-0 renal): 21.1 µM
GI50 (UO-31 renal): 2.53 µM
TGI (UO-31 renal): 15.6 µM
GI50 (SK-MEL-5 melanoma): 11.7 µM
TGI (SK-MEL-5 melanoma): 24.7 µM
